Data reported in patent US9938510B2, “Photobacterium sp. alpha-2-6-sialyltransferase variants” (The Regents of the University of California, priority 2014, dated 2018).
Where a chain is given by its changes, count along the chain named. Names may count otherwise. Read-outs that look alike come from different tables or passages of the source.

Legend:
[1] = test system: Photobacterium sp. JH-ISH-224 α2-6-sialyltransferase Psp26ST(15-501)-His6 A366G mutant, SEQ ID NO: 2; assay: Sialyltransferase kinetics, Psp26ST(15-501)-His6 A366G mutant; format: biochemical; details: apparent
Protocol: Reactions were carried out in duplicate at 20° C. for 20 minutes in a total volume of 10 μL in a proper buffer at the optimal pH according to the pH profile of the wild-type enzyme (see, Ding, 2011, supra). When LacβMU was used as an acceptor, the conditions were: Tris-HCl buffer (200 mM, pH 8.0), enzyme (0.3 μM), varied concentrations of LacβMU (0.1, 0.25, 0.4, 1.0, 2.0, 4.0, and 6.0 mM) with a fixed concentration of CMP-Neu5Ac (1.0 mM) or varied concentrations of CMP-Neu5Ac (0.1, 0.25, 0.4, 1.0, 2.0, 4.0, and 6.0 mM) with a fixed concentration of LacβMU (1.0 mM). When GalNAcα2AA was used as an acceptor, the conditions were: NaOAc-HOAc buffer (200 mM, pH 5.0), enzyme (6 μM), varied concentrations of GalNAcα2AA (0.5, 0.8, 1.0, 2.0, 4.0, 8.0, and 10.0 mM) and a fixed concentration of CMP-Neu5Ac (4.0 mM) or varied concentrations of CMP-Neu5Ac (0.5, 1.0, 2.0, 4.0, 5.0, 8.0, and 10.0 mM) with a fixed concentration of GalNAcα2AA (1.0 mM). When GalNAcαSer was used as an acceptor, the conditions were: Tris-HCl buffer (200 mM, pH 8.0), enzyme (0.6 μM), varied concentrations of GalNAcαSer (0.1, 0.25, 0.5, 1.0, 2.0, 4.0, 8.0, and 10.0 mM) and a fixed concentration of CMP-Neu5Ac (2.0 mM). When GalNAcαThr was used as an acceptor, the conditions were: Tris-HCl buffer (200 mM, pH 8.0), enzyme (3.0 μM), varied concentrations of GalNAcαThr (0.5, 1.0, 2.0, 4.0, 10.0, 20.0, 40.0, 60.0 mM) and a fixed concentration of CMP-Neu5Ac (4.0 mM). Results analysis was performed using the HPLC system as described above for sialyltransferase activity assays. Apparent kinetic parameters were obtained by fitting the experimental data (the average values of duplicate assay results) into the Michaelis-Menten equation using Grafit 5.0.

[2] = test system: Photobacterium sp. JH-ISH-224 α2-6-sialyltransferase Psp26ST(15-501)-His6, wild type, SEQ ID NO: 23; details: apparent, cited from earlier work
[3] = substrate: CC(=O)N[C@H]1[C@H]([C@H](O)[C@H](O)CO)O[C@](OP(=O)(O)OC[C@H]2O[C@@H](n3ccc(N)nc3=O)[C@H](O)[C@@H]2O)(C(=O)O)C[C@@H]1O; assay: Donor hydrolysis kinetics (CMP-Neu5Ac hydrolysis), Psp2,6ST(15-501)-His6 A235D mutant; format: biochemical, Photobacterium sp. JH-ISH-224; details: other: apparent, 20° C., 10 min, Tris-HCl pH 8.0
Protocol: (§1) Procedure for Kinetic Analysis of Donor Hydrolysis by His6-Pd2,6ST(16-497), Psp26ST(15-501)-His6 and its A235D and A366G Mutants
(§2) The kinetics study for the donor hydrolysis activity of His6-Pd2,6ST(16-497) was carried out at 37° C. for 20 min in Tris-HCl buffer (200 mM, pH 8.0). The kinetics study for the donor hydrolysis activities of Psp26ST(15-501)-His6 and its A235D mutant was carried out at 20° C. for 10 min in Tris-HCl buffer (200 mM, pH 8.0). All reactions were performed in duplicate in a total volume of 10 μL containing varied concentrations of CMP-Neu5Ac (10, 20, 40, 60, 80 and 100 mM) and the enzyme (6 μM). Reactions were stopped by adding 10 μL of ethanol and then centrifuged. The supernatants were analyzed by a P/ACETM capillary electrophoresis (CE) system equipped with a photodiode array (PDA) detector (Beckman Coulter, Inc., Fullerton, Calif.). CE conditions were as follows: 75 μm i.d. capillary, 25 KV/80μÅ, 5 s vacuum injections, monitored at 200 nm and 254 nm, the running buffer used was sodium tetraborate (25 mM, pH 9.4). Apparent kinetic parameters were obtained by fitting the experimental data (the average values of duplicate assay results) into the Michaelis-Menten equation using Grafit 5.0.

[4] = Sialyltransferase activity assays, statements not tied to one acceptor (LacβMU, GalNAcα2AA, GalNAcαSer, GalNAcαThr); format: biochemical
Protocol: When LacβMU was used as an acceptor, the assay was performed in duplicate in 10 μL of Tris-HCl buffer (100 mM, pH 8.0) containing CMP-Neu5Ac (1 mM), LacβMU (1 mM), MgCl2 (20 mM), wild-type Psp2,6ST(15-501)-His6 or its mutant (0.3 μM). When an α-GalNAc-terminated acceptor was used, the assay was performed in duplicate in 10 μL of Tris-HCl buffer (100 mM, pH 8.0 for GalNAcαSer/Thr) or NaOAc-HOAc (100 mM, pH 5.0 for GalNAcα2AA) containing CMP-Neu5Ac (1.5 mM), the acceptor (1 mM), MgCl2 (20 mM), wild-type Psp2,6ST(15-501)-His6 or its mutant (3.0 μM). Reactions were allowed to proceed at 20° C. for 20 min and stopped by adding 10 μL of cold ethanol. The analysis of sialylated product conversion was performed using the HPLC system as described above for sialyltransferase activity assay. The 4-methylumbelliferone (MU)-labeled fluorescent acceptor and the product formed were detected with excitation at 325 nm and emission at 372 nm. The 2-aminobenzoic acid (2AA)-labeled fluorescent acceptors and the products formed were detected with excitation at 315 nm and emission at 400 nm. The 9-fluorenylmethylcarbamate (Fmoc)-labeled fluorescent acceptors and the products formed were detected with excitation at 262 nm and emission at 313 nm.

[5] = Kinetics of CMP-Neu5Ac donor hydrolysis activity (capillary electrophoresis); format: biochemical
Protocol: as §1, §2

[6] = One-pot two-enzyme (OP2E) sialylation with NmCSS, GalNAcαThr as acceptor; format: biochemical; details: 2.5 equivalents of Neu5Ac and 5.0 equivalents of CTP
Description: White bars: GalNAcαSer was used as an acceptor with 1 equivalent of Neu5Ac and 1.5 equivalents of CTP. Grey bars: GalNAcαSer was used as an acceptor with 2.5 equivalents of Neu5Ac and 5.0 equivalents of CTP. Black bars: GalNAcαThr was used as an acceptor with 2.5 equivalents of Neu5Ac and 5.0 equivalents of CTP.
In this system, CTP and Neu5Ac were used by NmCSS for the formation of CMP-Neu5Ac in situ (see also, Yu and Chen, et al. Bioorg. Med. Chem. 2004, 12, 6427-6435). CMP-Neu5Ac was used as the donor substrate for Psp26ST(15-501)-His6 or its mutants. […] For example, using 1 equivalent of Neu5Ac and 1.5 equivalents of CTP in the one-pot two-enzyme (OP2E) reaction (white bars in FIG. 6) improved the GalNAcαSer α2-6-sialylation reaction yields from less than 6% (1 equivalent CMP-Neu5Ac was used) (FIG. 5B) to 32-51% for W365A, W365G, W365S mutants. Similarly, the OP2E reaction improved the GalNAcαSer α2-6-sialylation reaction yields from 40% and 37% to 75% and 67% for A366G mutant and the wild-type enzyme, respectively. Increasing the concentrations of Neu5Ac and CTP to 2.5 and 5.0 equivalents further improved the reaction yields to more than 67% for Psp26ST(15-501)-His6 and its mutants ([…]). […] Therefore, in situ generation of CMP-Neu5Ac, the sugar nucleotide donor for sialyltransferases, was proven an efficient method to enhance the yields for sialylation reactions catalyzed not only by the wild-type enzymes but also sialyltransferase mutants.

[7] = varied LacβMU, CMP-Neu5Ac 1.0 mM, Tris-HCl pH 8.0, 20° C.

Molecule: CC(=O)N[C@H]1[C@@H](O[C@H](C)[C@H](N)C(=O)O)O[C@H](CO)[C@H](O)[C@@H]1O [GalNAcαOThr]
- Km ([1]; varied GalNAcαThr, CMP-Neu5Ac 4.0 mM, Tris-HCl pH 8.0, 20° C.): 7.2 ± 3 mM
- Km ([2]; acceptor GalNAcαOThr): 5.9 ± 1.6 mM

Molecule: Cc1cc(=O)oc2cc(O[C@@H]3O[C@H](CO)[C@@H](O[C@@H]4O[C@H](CO)[C@H](O)[C@H](O)[C@H]4O)[C@H](O)[C@H]3O)ccc12 [LacβMU]
- Km [1, 7]: 0.41 mM
- kcat [1, 7]: (1.0 ± 0.1) × 10^2 min^−1
- Km ([2]; acceptor LacβMU): 0.36 mM
- kcat ([2]; acceptor LacβMU): (1.0 ± 0.1) × 10^2 min^−1

Molecule: GalNAcα2AA
- Km ([1]; varied GalNAcα2AA, CMP-Neu5Ac 4.0 mM, NaOAc-HOAc pH 5.0, 20° C.): 5.5 ± 1 mM
- Km ([2]; acceptor GalNAcα2AA): 9.5 ± 2.7 mM

Molecule: CC(=O)N[C@H]1[C@@H](OC[C@H](N)C(=O)O)O[C@H](CO)[C@H](O)[C@@H]1O [GalNAcαOSer]
- Km ([1]; varied GalNAcαSer, CMP-Neu5Ac 2.0 mM, Tris-HCl pH 8.0, 20° C.): 1.7 ± 0.7 mM
- Km ([2]; acceptor GalNAcαOSer): 1.4 ± 0.1 mM

B1: Photobacterium sp. JH-ISH-224 α2-6-sialyltransferase Psp2,6ST(15-501)-His6 A235D mutant, SEQ ID NO: 14 (Photobacterium sp. JT-ISH-224; A235D) (protein)
chain: CNNSEENTQSIIKNDINKTIIDEEYVNLEPINQSNISFTKHSWVQTCGTQQLLTEQNKESISLSVVAPRLDDDEKYCFDFNGVSNKGEKYITKVTLNVVAPSLEVYVDHASLPTLQQLMDIIKSEEENPTAQRYIAWGRIVPTDEQMKELNITSFALINNHTPADLVQEIVKQAQTKHRLNVKLSSNTAHSFDNLVPILKELNSFNNVTVTNIDLYDDGSDEYVNLYNWRDTLNKTDNLKIGKDYLEDVINGINEDTSNTGTSSVYNWQKLYPANYHFLRKDYLTLEPSLHELRDYIGDSLKQMQWDGFKKFNSKQQELFLSIVNFDKQKLQNEYNSSNLPNFVFTGTTVWAGNHEREYYAKQQINVINNAINESSPHYLGNSYDLFFKGHPGGGIINTLIMQNYPSMVDIPSKISFEVLMMTDMLPDAVAGIASSLYFTIPAEKIKFIVFTSTETITDRETALRSPLVQVMIKLGIVKEENVLFWA
- kcat [3]: 4.17 ± 0.333 s⁻¹

B2: R153G: Psp26ST(15-501)-His6 with R153G point mutation; SEQ ID NO: 10 (protein)
chain: B1 chain with R139G, D221A
modifications: C-terminal His6; Synthetic Psp26ST(15-501) R153G
- sialylation activity compared to wild-type [4]: knocked out the sialylation activity completely

B3: A235D: Psp26ST(15-501)-His6 with A235D point mutation; SEQ ID NO: 14 (protein)
chain: B1 chain
modifications: C-terminal His6; Synthetic Psp26ST(15-501) A235D
- sialylation activity compared to wild-type [4]: maintaining most of the sialylation activity
- donor hydrolysis activity compared to wild-type [5]: decreased donor hydrolysis activity

B4: A124D: Psp26ST(15-501)-His6 with A124D point mutation; SEQ ID NO: 12 (protein)
chain: B1 chain with A110D, D221A
modifications: C-terminal His6; Synthetic Psp26ST(15-501) A124D
- sialylation activity compared to wild-type [4]: lost sialylation activity

B5: W365A: Psp26ST(15-501)-His6 with W365A point mutation; SEQ ID NO: 6 (protein)
chain: B1 chain with D221A, W351A
modifications: C-terminal His6; Synthetic Psp26ST(15-501) W365A
- yield of Neu5Acα2-6GalNAcαThr from GalNAcαThr, OP2E [6]: 85%

B6: W365G: Psp26ST(15-501)-His6 with W365G point mutation; SEQ ID NO: 4 (protein)
chain: B1 chain with D221A, W351G
modifications: C-terminal His6; Synthetic Psp26ST(15-501) W365G
- yield of Neu5Acα2-6GalNAcαThr from GalNAcαThr, OP2E [6]: 91%
